Measurements reported in patent publication US11649255B2, “Indazoles as hematopoietic progenitor kinase 1 (HPK1) inhibitors and methods using same” (1st Biotherapeutics, Inc., priority 2020, dated 2023).
pIC50: −log10 of the molar value.

Biological target: recombinant human HPK1 (Homo sapiens (Human), UniProt Q92918)
Assay: HPK1 kinase assay (ADP-Glo)
Type: biochemical
Conditions: 25 μM ATP, MBP substrate
Procedure, shortened: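 Activity was read as ADP formed, detected by ADP-Glo luminescence after the reaction of 5 ng recombinant human HPK1 with MBP and ATP (stocks 0.5 μg/μl and 25 μM) for 40 min at 30 °C. Buffer was Tris pH 7.5 with MgCl2, BSA and DTT, with compound in 0.5% DMSO. IC50 came from inhibition curves.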

Chain of recombinant human HPK1 (Q92918 whole entry): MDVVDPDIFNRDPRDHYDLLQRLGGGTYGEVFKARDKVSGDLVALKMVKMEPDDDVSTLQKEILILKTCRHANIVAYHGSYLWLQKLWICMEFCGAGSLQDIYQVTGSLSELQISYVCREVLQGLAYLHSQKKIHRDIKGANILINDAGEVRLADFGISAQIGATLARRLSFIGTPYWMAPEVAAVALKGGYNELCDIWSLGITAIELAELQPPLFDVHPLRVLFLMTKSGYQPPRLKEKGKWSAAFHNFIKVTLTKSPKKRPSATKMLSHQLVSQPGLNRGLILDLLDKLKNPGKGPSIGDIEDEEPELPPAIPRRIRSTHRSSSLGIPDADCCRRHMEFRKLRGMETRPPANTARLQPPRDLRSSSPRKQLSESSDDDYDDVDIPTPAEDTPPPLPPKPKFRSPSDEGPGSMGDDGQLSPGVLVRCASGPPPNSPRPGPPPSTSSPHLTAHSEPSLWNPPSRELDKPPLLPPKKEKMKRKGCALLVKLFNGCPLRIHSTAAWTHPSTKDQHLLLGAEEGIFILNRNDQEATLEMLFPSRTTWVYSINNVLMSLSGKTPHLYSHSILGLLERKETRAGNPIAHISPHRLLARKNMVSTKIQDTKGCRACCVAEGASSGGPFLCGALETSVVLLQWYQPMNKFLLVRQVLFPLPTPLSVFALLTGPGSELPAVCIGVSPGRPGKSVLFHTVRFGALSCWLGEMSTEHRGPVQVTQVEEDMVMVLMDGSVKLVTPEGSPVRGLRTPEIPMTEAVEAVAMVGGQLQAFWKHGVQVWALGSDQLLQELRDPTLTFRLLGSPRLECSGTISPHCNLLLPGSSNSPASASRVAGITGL

Compound	pIC50
CS(=O)(=O)c1c(F)c(Cl)c(-c2ccn3nc(NC(=O)[C@@H]4C[C@@H]4F)cc3c2)c2cn[nH]c12 [Example 486, (1S,2S)-N-(5-(5-chloro-6-fluoro-7-(methylsulfonyl)-1H-indazol-4-yl)pyrazolo[1,5-a]pyridin-2-yl)-2-fluorocyclopropane-1-carboxamide]	> 7.00
CC(=O)Nc1c(F)c(C)c(-c2ccc3nc(NC(=O)[C@@H]4C[C@@H]4F)sc3n2)c2cn[nH]c12 [Example 181, (1S,2S)-N-(5-(7-acetamido-6-fluoro-5-methyl-1H-indazol-4-yl)thiazolo[5,4-b]pyridin-2-yl)-2-fluorocyclopropane-1-carboxamide]	6.30 to 7.00
O=C(Nc1cc2cc(-c3c(Cl)c(F)c(F)c4[nH]ncc34)ccn2n1)[C@@H]1C[C@@H]1F [Example 536, (1S,2S)-N-(5-(5-chloro-6,7-difluoro-1H-indazol-4-yl)pyrazolo[1,5-a]pyridin-2-yl)-2-fluorocyclopropane-1-carboxamide]	> 7.00
O=C(Nc1nc2ccc(-c3c(C(F)F)ccc4[nH]ncc34)cc2s1)[C@@H]1C[C@@H]1F [Example 33, (1S,2S)-N-(6-(5-(difluoromethyl)-1H-indazol-4-yl)benzo[d]thiazol-2-yl)-2-fluorocyclopropane-1-carboxamide]	6.30 to 7.00
O=C(Nc1nc2ccc(-c3cc(F)c(OC(F)(F)F)c4[nH]ncc34)cc2s1)[C@@H]1C[C@@H]1F [Example 140, (1S,2S)-2-fluoro-N-(6-(6-fluoro-7-(trifluoromethoxy)-1H-indazol-4-yl)benzo[d]thiazol-2-yl)cyclopropane-1-carboxamide]	< 6.00
CC(NC(=O)C1CCC1)c1c(F)c(Cl)c(-c2ccn3nc(NC(=O)[C@@H]4C[C@@H]4F)cc3c2)c2cn[nH]c12 (stereo partly drawn) [Example 661, N-(1-(5-chloro-6-fluoro-4-(2-((1S,2S)-2-fluorocyclopropane-1-carboxamido)pyrazolo[1,5-a]pyridin-5-yl)-1H-indazol-7-yl)ethyl)cyclobutanecarboxamide]	> 7.00
CSc1c(F)c(C)c(-c2ccc3nc(NC(=O)[C@@H]4C[C@@H]4F)cn3c2)c2cn[nH]c12 [Example 269, (1S,2S)-2-fluoro-N-(6-(6-fluoro-5-methyl-7-(methylthio)-1H-indazol-4-yl)imidazo[1,2-a]pyridin-2-yl)cyclopropane-1-carboxamide]	> 7.00
O=C(Nc1cn2cc(-c3c(C(F)F)c(F)cc4[nH]ncc34)ccc2n1)[C@@H]1C[C@@H]1F [Example 253, (1S,2S)-N-(6-(5-(difluoromethyl)-6-fluoro-1H-indazol-4-yl)imidazo[1,2-a]pyridin-2-yl)-2-fluorocyclopropane-1-carboxamide]	> 7.00
CCN(C)c1c(F)c(Cl)c(-c2ccc3nc(NC(=O)[C@@H]4C[C@@H]4F)sc3c2)c2cn[nH]c12 [Example 133, (1S,2S)-N-(6-(5-chloro-7-(ethyl(methyl)amino)-6-fluoro-1H-indazol-4-yl)benzo[d]thiazol-2-yl)-2-fluorocyclopropane-1-carboxamide]	> 7.00
N#Cc1c(F)c(Cl)c(-c2ccc3nc(NC(=O)[C@@H]4C[C@@H]4F)cn3c2)c2cn[nH]c12 [Example 351, (1S,2S)-N-(6-(5-chloro-7-cyano-6-fluoro-1H-indazol-4-yl)imidazo[1,2-a]pyridin-2-yl)-2-fluorocyclopropane-1-carboxamide]	> 7.00
CC(C#N)Nc1c(F)c(Cl)c(-c2ccc3nc(NC(=O)[C@@H]4C[C@@H]4F)cn3c2)c2cn[nH]c12 (stereo partly drawn) [Example 371, (1S,2S)-N-(6-(5-chloro-7-((1-cyanoethyl)amino)-6-fluoro-1H-indazol-4-yl)imidazo[1,2-a]pyridin-2-yl)-2-fluorocyclopropane-1-carboxamide]	> 7.00
O=C(Nc1nc2ccc(-c3c(O)ccc4[nH]ncc34)cc2s1)C1CC1 [Example 27, N-(6-(5-hydroxy-1H-indazol-4-yl)benzo[d]thiazol-2-yl)cyclopropanecarboxamide]	< 6.00
O=C(Nc1nc2ccc(-c3c(C4CC4)ccc4[nH]ncc34)cc2s1)[C@@H]1C[C@@H]1F [Example 37, (1S,2S)-N-(6-(5-cyclopropyl-1H-indazol-4-yl)benzo[d]thiazol-2-yl)-2-fluorocyclopropane-1-carboxamide]	6.30 to 7.00
O=C(Nc1cc2cc(-c3c(Cl)c(F)c(N4CCCC4)c4[nH]ncc34)ccn2n1)[C@@H]1C[C@@H]1F [Example 499, (1S,2S)-N-(5-(5-chloro-6-fluoro-7-(pyrrolidin-1-yl)-1H-indazol-4-yl)pyrazolo[1,5-a]pyridin-2-yl)-2-fluorocyclopropane-1-carboxamide]	> 7.00
Cc1c(F)c(S(C)(=O)=O)c2[nH]ncc2c1-c1ccc2nc(NC(=O)[C@@H]3C[C@@H]3F)sc2c1 [Example 112, (1S,2S)-2-fluoro-N-(6-(6-fluoro-5-methyl-7-(methylsulfonyl)-1H-indazol-4-yl)benzo[d]thiazol-2-yl)cyclopropane-1-carboxamide]	6.30 to 7.00
Cc1noc(-c2c(F)c(Cl)c(-c3ccc4nc(NC(=O)[C@@H]5C[C@@H]5F)cn4c3)c3cn[nH]c23)n1 [Example 364, (1S,2S)-N-(6-(5-chloro-6-fluoro-7-(3-methyl-1,2,4-oxadiazol-5-yl)-1H-indazol-4-yl)imidazo[1,2-a]pyridin-2-yl)-2-fluorocyclopropane-1-carboxamide]	> 7.00
CNCCN(C)c1c(F)c(Cl)c(-c2ccc3nc(NC(=O)[C@@H]4C[C@@H]4F)sc3c2)c2cn[nH]c12 [Example 92, (1S,2S)-N-(6-(5-chloro-6-fluoro-7-(methyl(2-(methylamino)ethyl)amino)-1H-indazol-4-yl)benzo[d]thiazol-2-yl)-2-fluorocyclopropane-1-carboxamide]	> 7.00
O=C(Nc1nc2ccc(-c3c(-c4ccsc4)ccc4[nH]ncc34)cc2s1)C1CC1 [Example 18, N-(6-(5-(thiophen-3-yl)-1H-indazol-4-yl)benzo[d]thiazol-2-yl)cyclopropanecarboxamide]	< 6.00
CNC1CCC(Nc2c(F)c(Cl)c(-c3ccn4nc(NC(=O)[C@@H]5C[C@@H]5F)cc4c3)c3cn[nH]c23)CC1 (stereo partly drawn) [Example 508, (1S,2S)-N-(5-(5-chloro-6-fluoro-7-((4-(methylamino)cyclohexyl)amino)-1H-indazol-4-yl)pyrazolo[1,5-a]pyridin-2-yl)-2-fluorocyclopropane-1-carboxamide]	> 7.00
CCc1c(F)c(SCC(=O)O)c2[nH]ncc2c1-c1ccc2nc(NC(=O)[C@@H]3C[C@@H]3F)sc2n1 [Example 168, 2-((5-ethyl-6-fluoro-4-(2-((1S,2S)-2-fluorocyclopropane-1-carboxamido)thiazolo[5,4-b]pyridin-5-yl)-1H-indazol-7-yl)thio)acetic acid]	6.30 to 7.00
CCN(C)C(=O)c1c(F)c(Cl)c(-c2ccc3nc(NC(=O)[C@@H]4C[C@@H]4F)cn3c2)c2cn[nH]c12 [Example 341, 5-chloro-N-ethyl-6-fluoro-4-(2-((1S,2S)-2-fluorocyclopropane-1-carboxamido)imidazo[1,2-a]pyridin-6-yl)-N-methyl-1H-indazole-7-carboxamide]	> 7.00
O=C(Nc1cn2cc(-c3c(C4CC4)ccc4[nH]ncc34)ccc2n1)C1CC1 [Example 244, N-(6-(5-cyclopropyl-1H-indazol-4-yl)imidazo[1,2-a]pyridin-2-yl)cyclopropanecarboxamide]	6.30 to 7.00
Cc1ccc2[nH]ncc2c1-c1ccc2nc(NC(=O)c3ccccn3)sc2c1 [Example 12, N-(6-(5-methyl-1H-indazol-4-yl)benzo[d]thiazol-2-yl)picolinamide]	< 6.00
O=C(Nc1nc2ccc(-c3cc(F)c(OC(F)(F)F)c4[nH]ncc34)nc2s1)[C@@H]1C[C@@H]1F [Example 215, (1S,2S)-2-fluoro-N-(5-(6-fluoro-7-(trifluoromethoxy)-1H-indazol-4-yl)thiazolo[5,4-b]pyridin-2-yl)cyclopropane-1-carboxamide]	< 6.00
CN(C)c1c(F)c(C(F)(F)F)c(-c2ccc3nc(NC(=O)[C@@H]4C[C@@H]4F)sc3n2)c2cn[nH]c12 [Example 207, (1S,2S)-N-(5-(7-(dimethylamino)-6-fluoro-5-(trifluoromethyl)-1H-indazol-4-yl)thiazolo[5,4-b]pyridin-2-yl)-2-fluorocyclopropane-1-carboxamide]	> 7.00
CCc1c(F)c(N(C)C)c2[nH]ncc2c1-c1ccc2nc(NC(=O)[C@@H]3C[C@@H]3F)sc2c1 [Example 102, (1S,2S)-N-(6-(7-(dimethylamino)-5-ethyl-6-fluoro-1H-indazol-4-yl)benzo[d]thiazol-2-yl)-2-fluorocyclopropane-1-carboxamide]	> 7.00
CN(C)C(=O)CN(C)c1c(F)c(Cl)c(-c2ccc3nc(NC(=O)[C@@H]4C[C@@H]4F)sc3c2)c2cn[nH]c12 [Example 100, (1S,2S)-N-(6-(5-chloro-7-((2-(dimethylamino)-2-oxoethyl)(methyl)amino)-6-fluoro-1H-indazol-4-yl)benzo[d]thiazol-2-yl)-2-fluorocyclopropane-1-carboxamide]	> 7.00
CN(c1ncc(F)cn1)c1c(F)c(Cl)c(-c2ccn3nc(NC(=O)[C@@H]4C[C@@H]4F)cc3c2)c2cn[nH]c12 [Example 613, (1S,2S)-N-(5-(5-chloro-6-fluoro-7-((5-fluoropyrimidin-2-yl)(methyl)amino)-1H-indazol-4-yl)pyrazolo[1,5-a]pyridin-2-yl)-2-fluorocyclopropane-1-carboxamide]	> 7.00
O=C(O)c1c(F)c(Cl)c(-c2ccc3nc(NC(=O)[C@@H]4C[C@@H]4F)sc3c2)c2cn[nH]c12 [Example 121, 5-chloro-6-fluoro-4-(2-((1S,2S)-2-fluorocyclopropane-1-carboxamido)benzo[d]thiazol-6-yl)-1H-indazole-7-carboxylic acid]	< 6.00
Cc1c(F)c(SCCO)c2[nH]ncc2c1-c1ccc2nc(NC(=O)[C@@H]3C[C@@H]3F)sc2n1 [Example 163, (1S,2S)-2-fluoro-N-(5-(6-fluoro-7-((2-hydroxyethyl)thio)-5-methyl-1H-indazol-4-yl)thiazolo[5,4-b]pyridin-2-yl)cyclopropane-1-carboxamide]	> 7.00
